Holding throughout (assay): biochemical
For assay [1], the target named is T1, CHK2 (Homo sapiens, UniProt O96017).
T1 construct: gene CHEK2
The conditions noted are these: read-out: Upstate KSS % inhibition at 1uM. On the procedure:
In these selectivity assays the concentration of ATP was set to the Km value of ATP for each kinase tested to allow for a relative potency comparison between the various kinases. The compounds were tested at 1 µM final concentration. […] (A) Kinase selectivity screen (KSS) performed at Upstate Biotechnology. […] (B) KSS performed at University of Dundee (Division of Signal Transduction Therapy). […] (PDF) Click here for additional data file.

The target of assay [2] is T2, CKIIa (Homo sapiens, UniProt P68400).
T2 construct: gene CSNK2A1
T2 sequence (P68400 whole entry): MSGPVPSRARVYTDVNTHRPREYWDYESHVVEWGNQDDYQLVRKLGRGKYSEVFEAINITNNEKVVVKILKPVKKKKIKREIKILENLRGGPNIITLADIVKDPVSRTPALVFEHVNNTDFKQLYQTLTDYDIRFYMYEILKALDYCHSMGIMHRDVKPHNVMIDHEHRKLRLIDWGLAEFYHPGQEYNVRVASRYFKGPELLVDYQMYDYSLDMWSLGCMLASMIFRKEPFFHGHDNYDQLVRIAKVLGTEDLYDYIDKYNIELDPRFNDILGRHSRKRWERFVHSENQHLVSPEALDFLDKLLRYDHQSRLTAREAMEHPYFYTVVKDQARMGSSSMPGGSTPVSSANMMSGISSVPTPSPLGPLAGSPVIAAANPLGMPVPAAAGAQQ
On the set-up: University of Dundee kinase panel, percent inhibition of phosphorylation at 1 uM RAFi, ATP at Km. The conditions noted are these: read-out: Dundee KSS %inh at 1 uM. The protocol: (§1) The METi and RAFi were screened against kinase panels (SelectScreen, Invitrogen; University of Dundee, Division of Signal Transduction Therapy, UK; Upstate Biotechnology/Millipore, Billerica, MA). In these selectivity assays the concentration of ATP was set to the Km value of ATP for each kinase tested to allow for a relative potency comparison between the various kinases. The compounds were tested at 1 µM final concentration. […] Supplementary file pone.0039653.s002.pdf: Figure S2 Kinase Selectivity Screen of RAFi. (A) Kinase selectivity screen (KSS) performed at University of Dundee (Division of Signal Transduction Therapy). Values in % inhibition of phosphorylation given 1 µM of RAFi compared to control. (B) KSS performed at Invitrogen (Selectscreen Service) compared to control. Values in % inhibition of phosphorylation given 1 µM of RAFi. (C) Cell based dose response kinase inhibition of indicated kinases by RAFi. (PDF) Click here for additional data file.

The target of assay [3] is T3, DYRK2 (Homo sapiens, UniProt Q92630).
T3 sequence (Q92630 1-601): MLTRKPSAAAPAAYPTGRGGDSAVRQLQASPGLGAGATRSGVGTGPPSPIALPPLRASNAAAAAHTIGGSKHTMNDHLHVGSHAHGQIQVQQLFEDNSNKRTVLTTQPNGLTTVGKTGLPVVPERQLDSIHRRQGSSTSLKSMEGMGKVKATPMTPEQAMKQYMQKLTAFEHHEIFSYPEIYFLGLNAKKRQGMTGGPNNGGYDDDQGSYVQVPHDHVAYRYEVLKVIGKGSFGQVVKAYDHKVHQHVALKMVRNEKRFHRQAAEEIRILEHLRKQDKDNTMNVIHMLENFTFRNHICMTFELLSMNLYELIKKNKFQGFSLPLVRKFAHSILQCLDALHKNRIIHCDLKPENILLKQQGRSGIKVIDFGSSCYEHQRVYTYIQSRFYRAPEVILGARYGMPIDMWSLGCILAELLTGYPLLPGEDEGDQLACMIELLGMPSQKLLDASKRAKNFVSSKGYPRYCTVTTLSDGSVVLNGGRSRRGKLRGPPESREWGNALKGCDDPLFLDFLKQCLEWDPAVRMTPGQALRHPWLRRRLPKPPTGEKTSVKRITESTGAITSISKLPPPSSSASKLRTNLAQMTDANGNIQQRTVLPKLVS
On the set-up: University of Dundee kinase panel, percent inhibition of phosphorylation at 1 uM RAFi, ATP at Km. The conditions noted are these: read-out: Dundee KSS %inh at 1 uM. On the procedure: as §1

Assay [4] has as its target T4, ERK7 (Homo sapiens, UniProt Q8TD08).
T4 construct: gene MAPK15
On the set-up: University of Dundee kinase panel, percent inhibition of phosphorylation at 1 uM RAFi, ATP at Km. The conditions noted are these: read-out: Dundee KSS %inh at 1 uM. On the procedure:
as §1

In assay [5] the target is T5, IKKb (Homo sapiens, UniProt O14920).
T5 construct: gene IKBKB
T5 sequence (O14920 whole entry): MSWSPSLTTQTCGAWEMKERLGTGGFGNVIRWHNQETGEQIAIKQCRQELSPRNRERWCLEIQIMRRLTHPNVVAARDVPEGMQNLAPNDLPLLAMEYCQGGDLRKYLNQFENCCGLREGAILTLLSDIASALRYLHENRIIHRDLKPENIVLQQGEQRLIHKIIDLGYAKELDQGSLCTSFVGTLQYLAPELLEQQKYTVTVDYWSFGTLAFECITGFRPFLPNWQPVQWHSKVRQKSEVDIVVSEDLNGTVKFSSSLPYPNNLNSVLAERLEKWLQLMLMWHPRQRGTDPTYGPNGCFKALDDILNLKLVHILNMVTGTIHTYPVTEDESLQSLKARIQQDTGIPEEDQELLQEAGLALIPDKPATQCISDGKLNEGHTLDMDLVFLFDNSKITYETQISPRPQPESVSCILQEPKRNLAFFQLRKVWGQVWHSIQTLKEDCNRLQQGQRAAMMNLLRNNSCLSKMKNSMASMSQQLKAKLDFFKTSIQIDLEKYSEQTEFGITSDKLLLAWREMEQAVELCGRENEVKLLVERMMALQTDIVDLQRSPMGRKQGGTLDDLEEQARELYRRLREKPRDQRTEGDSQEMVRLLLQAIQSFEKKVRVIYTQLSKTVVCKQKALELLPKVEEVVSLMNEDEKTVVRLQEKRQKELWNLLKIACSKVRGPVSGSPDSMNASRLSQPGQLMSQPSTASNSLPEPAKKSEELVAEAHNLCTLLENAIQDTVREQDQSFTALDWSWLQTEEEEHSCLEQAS
Also on record: University of Dundee kinase panel, percent inhibition of phosphorylation at 1 uM RAFi, ATP at Km. The conditions noted are these: read-out: Dundee KSS %inh at 1 uM. The protocol:
as §1

The target of assay [6] is T6, MNK1 (Homo sapiens, UniProt Q9BUB5).
T6 construct: gene MKNK1
T6 sequence (Q9BUB5 whole entry): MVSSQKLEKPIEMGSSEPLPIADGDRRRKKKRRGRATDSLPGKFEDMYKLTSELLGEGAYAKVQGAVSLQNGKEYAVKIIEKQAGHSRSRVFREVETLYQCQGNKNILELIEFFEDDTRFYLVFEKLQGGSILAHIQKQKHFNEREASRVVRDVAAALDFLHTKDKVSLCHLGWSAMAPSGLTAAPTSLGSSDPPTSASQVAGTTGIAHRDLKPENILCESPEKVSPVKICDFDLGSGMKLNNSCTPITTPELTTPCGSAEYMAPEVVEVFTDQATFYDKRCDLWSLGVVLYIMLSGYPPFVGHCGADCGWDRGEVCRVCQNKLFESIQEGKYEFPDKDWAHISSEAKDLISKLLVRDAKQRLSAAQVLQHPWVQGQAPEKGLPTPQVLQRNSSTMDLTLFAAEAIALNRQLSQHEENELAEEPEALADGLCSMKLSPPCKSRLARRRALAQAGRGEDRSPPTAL
Also on record: University of Dundee kinase panel, percent inhibition of phosphorylation at 1 uM RAFi, ATP at Km. The conditions noted are these: read-out: Dundee KSS %inh at 1 uM. On the procedure: as §1

The target of assay [7] is T7, MNK2 (Homo sapiens, UniProt Q9HBH9).
T7 construct: gene MKNK2
Also on record: University of Dundee kinase panel, percent inhibition of phosphorylation at 1 uM RAFi, ATP at Km. The conditions noted are these: read-out: Dundee KSS %inh at 1 uM. On the procedure: as §1

For assay [8], the target named is NEK2 (Homo sapiens, UniProt P51955). On the set-up: University of Dundee kinase panel, percent inhibition of phosphorylation at 1 uM RAFi, ATP at Km. The conditions noted are these: read-out: Dundee KSS %inh at 1 uM. On the procedure:
as §1

Assay [9] deals with PIM1 (Homo sapiens, UniProt P11309). Also on record: University of Dundee kinase panel, percent inhibition of phosphorylation at 1 uM RAFi, ATP at Km. The conditions noted are these: read-out: Dundee KSS %inh at 1 uM. On the procedure: as §1
Sequence of PIM1 (P11309 whole entry): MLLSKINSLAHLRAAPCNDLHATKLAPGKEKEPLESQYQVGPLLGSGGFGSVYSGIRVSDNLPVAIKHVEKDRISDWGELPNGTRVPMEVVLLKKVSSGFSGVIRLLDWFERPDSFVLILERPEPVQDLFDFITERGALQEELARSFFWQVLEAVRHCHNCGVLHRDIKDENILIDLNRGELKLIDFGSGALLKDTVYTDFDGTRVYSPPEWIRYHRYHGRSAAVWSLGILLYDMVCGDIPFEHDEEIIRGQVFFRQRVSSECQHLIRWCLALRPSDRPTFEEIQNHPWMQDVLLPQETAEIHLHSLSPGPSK
Assay [10] concerns the target PLK1 (Homo sapiens, UniProt P53350). On the set-up: University of Dundee kinase panel, percent inhibition of phosphorylation at 1 uM RAFi, ATP at Km. The conditions noted are these: read-out: Dundee KSS %inh at 1 uM. On the procedure:
as §1

Assay [11] concerns the target T8, PLK1preactivated (Homo sapiens, UniProt P53350).
T8 construct: gene PLK1
Also on record: University of Dundee kinase panel, percent inhibition of phosphorylation at 1 uM RAFi, ATP at Km. The conditions noted are these: read-out: Dundee KSS %inh at 1 uM. On the procedure:
as §1

Assay [12] concerns the target T9, PRK2 (Homo sapiens, UniProt Q16513).
T9 construct: gene PKN2
On the set-up: University of Dundee kinase panel, percent inhibition of phosphorylation at 1 uM RAFi, ATP at Km. The conditions noted are these: read-out: Dundee KSS %inh at 1 uM. The protocol: as §1

For assay [13], the target named is SRPK1 (Homo sapiens, UniProt Q96SB4). On the set-up: University of Dundee kinase panel, percent inhibition of phosphorylation at 1 uM RAFi, ATP at Km. The conditions noted are these: read-out: Dundee KSS %inh at 1 uM. On the procedure: as §1
Assay [14] deals with T10, mouse ERK2 (Mus musculus, UniProt P63085).
T10 construct: gene Mapk1
T10 sequence (P63085 whole entry): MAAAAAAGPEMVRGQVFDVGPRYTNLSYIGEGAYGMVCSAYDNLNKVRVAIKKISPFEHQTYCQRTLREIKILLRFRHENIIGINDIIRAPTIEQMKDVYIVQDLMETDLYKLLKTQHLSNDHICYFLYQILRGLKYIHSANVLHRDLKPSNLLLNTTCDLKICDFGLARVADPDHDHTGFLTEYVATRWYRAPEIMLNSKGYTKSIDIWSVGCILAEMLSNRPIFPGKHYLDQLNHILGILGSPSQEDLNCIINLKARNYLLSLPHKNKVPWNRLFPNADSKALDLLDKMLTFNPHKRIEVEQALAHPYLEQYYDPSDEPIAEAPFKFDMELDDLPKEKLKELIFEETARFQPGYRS
On the set-up: University of Dundee kinase panel, percent inhibition of phosphorylation at 1 uM RAFi, ATP at Km. The conditions noted are these: read-out: Dundee KSS %inh at 1 uM. On the procedure: as §1

The target of assay [15] is T11, rat RSK1 (Rattus norvegicus, UniProt Q63531).
T11 construct: gene Rps6ka1
T11 sequence (Q63531 whole entry): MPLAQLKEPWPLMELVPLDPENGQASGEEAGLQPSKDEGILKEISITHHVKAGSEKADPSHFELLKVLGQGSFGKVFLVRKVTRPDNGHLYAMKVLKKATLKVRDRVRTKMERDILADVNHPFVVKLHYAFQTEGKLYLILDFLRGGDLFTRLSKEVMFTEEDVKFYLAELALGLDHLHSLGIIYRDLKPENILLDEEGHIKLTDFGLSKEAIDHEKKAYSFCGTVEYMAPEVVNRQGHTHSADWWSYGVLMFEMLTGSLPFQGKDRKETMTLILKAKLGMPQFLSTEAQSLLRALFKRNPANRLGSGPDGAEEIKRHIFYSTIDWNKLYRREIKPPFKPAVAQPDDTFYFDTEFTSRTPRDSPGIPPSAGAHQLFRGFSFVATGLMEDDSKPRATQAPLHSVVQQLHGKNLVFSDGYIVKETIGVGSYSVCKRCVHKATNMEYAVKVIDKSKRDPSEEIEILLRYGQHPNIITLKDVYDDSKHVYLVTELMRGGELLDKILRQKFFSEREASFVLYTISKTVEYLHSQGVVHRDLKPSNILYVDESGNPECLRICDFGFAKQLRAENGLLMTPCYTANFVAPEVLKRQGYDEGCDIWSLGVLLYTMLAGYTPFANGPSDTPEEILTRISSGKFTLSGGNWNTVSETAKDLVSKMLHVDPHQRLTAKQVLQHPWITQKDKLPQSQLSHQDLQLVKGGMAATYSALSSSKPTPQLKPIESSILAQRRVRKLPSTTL
Also on record: University of Dundee kinase panel, percent inhibition of phosphorylation at 1 uM RAFi, ATP at Km. The conditions noted are these: read-out: Dundee KSS %inh at 1 uM. The protocol: as §1

T9 sequence (Q16513 whole entry): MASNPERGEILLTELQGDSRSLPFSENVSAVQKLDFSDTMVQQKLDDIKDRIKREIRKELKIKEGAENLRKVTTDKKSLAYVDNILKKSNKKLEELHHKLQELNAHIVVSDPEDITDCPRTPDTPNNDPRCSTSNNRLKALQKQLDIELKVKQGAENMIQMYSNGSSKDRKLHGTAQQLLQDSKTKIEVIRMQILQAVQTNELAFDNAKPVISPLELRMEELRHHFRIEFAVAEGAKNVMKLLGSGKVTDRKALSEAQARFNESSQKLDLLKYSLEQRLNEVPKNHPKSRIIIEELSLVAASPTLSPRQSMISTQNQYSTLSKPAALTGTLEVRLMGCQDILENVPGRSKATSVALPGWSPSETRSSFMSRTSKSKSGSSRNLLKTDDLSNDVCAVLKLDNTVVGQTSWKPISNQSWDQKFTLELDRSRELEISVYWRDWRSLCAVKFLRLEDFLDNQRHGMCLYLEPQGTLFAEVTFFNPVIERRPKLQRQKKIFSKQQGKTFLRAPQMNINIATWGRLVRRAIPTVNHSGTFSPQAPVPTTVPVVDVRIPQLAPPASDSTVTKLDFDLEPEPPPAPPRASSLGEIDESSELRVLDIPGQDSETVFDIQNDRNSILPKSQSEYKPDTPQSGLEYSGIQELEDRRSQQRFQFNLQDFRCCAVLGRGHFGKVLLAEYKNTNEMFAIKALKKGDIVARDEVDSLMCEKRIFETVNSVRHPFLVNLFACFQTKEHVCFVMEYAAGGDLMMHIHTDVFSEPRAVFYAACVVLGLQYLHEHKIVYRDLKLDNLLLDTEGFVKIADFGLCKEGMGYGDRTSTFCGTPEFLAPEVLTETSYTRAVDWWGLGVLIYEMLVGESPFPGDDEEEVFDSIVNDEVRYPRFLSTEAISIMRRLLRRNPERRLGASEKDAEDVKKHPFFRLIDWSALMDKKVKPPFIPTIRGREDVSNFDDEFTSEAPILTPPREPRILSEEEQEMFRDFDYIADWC
Sequence of NEK2 (P51955 whole entry): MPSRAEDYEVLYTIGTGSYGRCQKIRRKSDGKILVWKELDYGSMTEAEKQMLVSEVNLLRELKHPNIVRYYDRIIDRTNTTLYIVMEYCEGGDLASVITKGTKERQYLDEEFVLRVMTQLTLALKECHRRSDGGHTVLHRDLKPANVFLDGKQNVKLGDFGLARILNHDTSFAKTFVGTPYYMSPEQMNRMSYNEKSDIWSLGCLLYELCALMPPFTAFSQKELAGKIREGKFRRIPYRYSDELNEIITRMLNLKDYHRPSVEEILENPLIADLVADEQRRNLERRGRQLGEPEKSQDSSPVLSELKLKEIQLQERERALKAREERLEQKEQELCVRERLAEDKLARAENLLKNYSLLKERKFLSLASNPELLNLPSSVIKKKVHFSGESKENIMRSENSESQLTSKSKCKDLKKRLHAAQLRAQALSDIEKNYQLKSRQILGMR
T1 sequence (O96017 whole entry): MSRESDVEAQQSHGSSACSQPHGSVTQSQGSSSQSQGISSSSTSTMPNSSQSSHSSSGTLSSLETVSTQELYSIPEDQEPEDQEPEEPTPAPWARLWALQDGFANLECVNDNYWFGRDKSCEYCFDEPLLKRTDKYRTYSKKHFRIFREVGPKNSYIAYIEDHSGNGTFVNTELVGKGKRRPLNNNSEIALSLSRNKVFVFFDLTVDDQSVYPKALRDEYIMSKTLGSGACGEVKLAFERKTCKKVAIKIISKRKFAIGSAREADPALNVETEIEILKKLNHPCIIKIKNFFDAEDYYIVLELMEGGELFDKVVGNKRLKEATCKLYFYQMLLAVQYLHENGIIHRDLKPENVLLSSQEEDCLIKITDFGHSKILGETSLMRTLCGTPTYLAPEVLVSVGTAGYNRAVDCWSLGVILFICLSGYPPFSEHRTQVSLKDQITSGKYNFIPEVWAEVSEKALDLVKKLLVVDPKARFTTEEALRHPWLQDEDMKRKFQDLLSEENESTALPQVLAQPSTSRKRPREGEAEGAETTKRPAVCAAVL

`OCCn1cc(-c2cnc3nnn(Cc4ccc5ncccc5c4)c3n2)cn1` [METi, PF-04217903]: the inhibition at 1 µM in assay [1] was found to be 0%.
With `N#CCCNc1nccc(-c2cn(CC(F)F)nc2-c2cnc3[nH]ccc3c2)n1` [RAFi, PF-04880594], the inhibition at 1 µM was -2% in assay [2]; 23% in assay [3]; 16% in assay [4]; 4% in assay [5]; 7% in assay [6]; 12% in assay [7]. Also, the inhibition at 1 µM stood at 73% in [8]; 4% in assay [9]; 47% in assay [10]; 64% in [11]; 16% in [12]; 5% in [13]. Besides, the inhibition at 1 µM in assay [14] worked out at 48%; in [15] it was 29%.

The record behind these values is publication PMC3382171 (PLoS ONE, 2012).
